US9573921B2, “Substituted N, N-dimethylaminoalkyl ethers of isoflavanone oximes as H1-receptor antagonists” (POLFARMEX S.A., priority 2013, dated 2017)

Target: T1, H3 (Cavia porcellus, UniProt Q9JI35)
T1 construct: Whole jejunum segments (2 cm) were prepared and mounted between two platinum electrodes; from tissue; host or cells: guinea pig jejunum (small intestine, 20-50 cm proximal to the ileocaecal valve)
Experiment: H3 antagonistic effects in vitro, electrically stimulated guinea pig jejunum, versus (R)-α-methylhistamine
Assay type: cell-based
Details: (R)-α-methylhistamine as H3-agonist, pyrilamine 1·10^-5 mol/L present, Schild regression, read-out: pA2 (H3-antagonistic activity) (converted)
Procedure: Selected compounds were tested for H3 antagonistic effects in vitro, following standard methods, using the guinea pig ileum (R. C. Vollinga, O. P. Zuiderveld, H. Scheerens, A. Bast, H. Timmerman, Meth. Find. Exp. Cli. Pharmacol. 1992, 105, 747-751). Male guinea pigs weighing 300-400 g were sacrificed by a blow on the head. A portion of the small intestine, 20-50 cm proximal to the ileocaecal valve (jejunum), was removed and placed in Krebs buffer (composition (mM) NaCl 118; KCl 5.6; MgSO4 1.18; CaCl2 2.5; NaH2PO4 1.28; NaHCO3 25; glucose 5.5 and indomethacin (1 10^−6 mol/L)). […] Contractions were recorded isotonically under 1.0 g tension with Hugo Sachs Hebel-Messvorsatz (T1-2)/HF-modem (Hugo Sachs Electronik, Hugstetten, Germany) connected to a pen recorder. […] After 30 min of stimulation, five minutes before adding (R)-α-methylhistamine, pyrilamine (1.10^−5 mol/L concentration in organ bath) was added, and then cumulative concentration-response curves (half-log increments) of (R)-α-methylhistamine, H3-agonist, were recorded until no further change in response was found. Five minutes before adding the tested compounds, the pyrilamine (1 10^−5 mol/L concentration in organ bath) was added, and after 20 minutes cumulative concentration-response curves (half-log increments) of (R)-α-methylhistamine, H3-agonist, were recorded until no further change in response was found. […]

T1 sequence (Q9JI35 whole entry): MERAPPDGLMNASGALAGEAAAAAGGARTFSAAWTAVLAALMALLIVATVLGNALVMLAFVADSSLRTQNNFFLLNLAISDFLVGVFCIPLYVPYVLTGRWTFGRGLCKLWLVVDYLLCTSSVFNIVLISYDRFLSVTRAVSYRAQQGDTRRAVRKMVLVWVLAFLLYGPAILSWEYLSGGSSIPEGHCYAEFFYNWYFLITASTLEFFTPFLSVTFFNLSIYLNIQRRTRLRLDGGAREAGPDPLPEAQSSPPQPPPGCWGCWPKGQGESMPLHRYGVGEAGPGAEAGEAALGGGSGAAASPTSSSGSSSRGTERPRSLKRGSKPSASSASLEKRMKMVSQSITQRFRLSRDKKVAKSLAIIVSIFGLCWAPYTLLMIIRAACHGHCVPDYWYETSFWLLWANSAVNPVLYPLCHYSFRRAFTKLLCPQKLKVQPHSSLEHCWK

Work on `S=C(NC1CCCCC1)N1CCC(c2cnc[nH]2)CC1` [thioperamide] yielded a Kb of 2.14 nM.
